The term EC50 denotes the concentration at which the effect is half-maximal. Read a low EC50 as higher potency in that assay. The IC50 is the concentration needed to halve the response being measured. A word on the AUC: it is concentration integrated over time. Broadly, the Vdss is the apparent volume that relates the amount in the body to the concentration in plasma or blood. By fraction unbound is commonly meant free concentration divided by total concentration. A higher fraction unbound goes with weak binding. A word on the bioavailability: it is the share of a dose that reaches the circulation, judged against a reference dose that is usually intravenous. By clearance is commonly meant the rate of elimination divided by the concentration. By half-life is commonly meant how long it takes for the measured level to halve. A higher half-life goes with slow decline.

This note sets out measurements from ChEMBL document CHEMBL4330100, “Selective estrogen receptor degraders with novel structural motifs induce regression in a tamoxifen-resistant breast cancer xenograft” (Bioorg Med Chem Lett, 2019).

Molecules are shown by their SMILES. Active and inactive are the calls of the source. No cut-off for these calls is given here. A value given as a limit tells only on which side of the number the result lay.

The target in one data set is T1, Estrogen receptor (Homo sapiens, UniProt P03372).
T1 sequence (P03372 whole entry): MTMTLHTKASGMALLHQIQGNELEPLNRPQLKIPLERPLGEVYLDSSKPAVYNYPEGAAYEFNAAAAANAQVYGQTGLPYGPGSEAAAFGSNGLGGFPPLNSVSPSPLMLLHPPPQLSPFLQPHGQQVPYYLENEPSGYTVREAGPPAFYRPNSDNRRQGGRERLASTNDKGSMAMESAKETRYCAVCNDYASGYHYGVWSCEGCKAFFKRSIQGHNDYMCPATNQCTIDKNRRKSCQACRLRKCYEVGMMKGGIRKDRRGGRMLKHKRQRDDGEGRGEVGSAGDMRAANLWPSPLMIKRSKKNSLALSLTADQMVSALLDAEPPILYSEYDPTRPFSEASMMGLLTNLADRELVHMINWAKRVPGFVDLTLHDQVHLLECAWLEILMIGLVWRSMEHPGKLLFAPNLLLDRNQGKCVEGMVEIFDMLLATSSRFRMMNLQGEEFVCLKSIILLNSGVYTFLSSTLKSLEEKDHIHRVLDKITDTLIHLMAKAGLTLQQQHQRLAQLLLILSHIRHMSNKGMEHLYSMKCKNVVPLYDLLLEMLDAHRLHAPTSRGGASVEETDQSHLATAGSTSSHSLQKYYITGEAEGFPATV
The data set is described as follows: Induction of ERalpha degradation in human MCF7 cells in phenol red free RPMI medium containing 5% charcoal-stripped FBS incubated for 4 hrs by IRDye 800CW/DRAQ5 dye based in-cell Western assay.

For the next data set, the system named is MCF7. The data set is described as follows: Antiproliferative activity against human MCF7 cells assessed as reduction in cell proliferation measured after 5 days by Cell-titer-Glo assay. The conditions noted are these: MCF7, 120 h. In kind it is functional, cell-based.
In data set [1] the test system is Rattus norvegicus. In words: In vivo antagonist activity at estrogen receptor in CD-IGS rat assessed as inhibition of estrogen-stimulated uterine growth at 1 mg/kg, po administered daily 15 mins before estrogen treatment for 3 days and measured 24 hrs post last dose relative to ARN-180. In kind it is functional.
The nature of data set [2]: AUC in CD-1 mouse at 10 mg/kg, po. In kind it is ADME, organism-based. The settings on record: in vivo.
A short description of data set [3]: Oral bioavailability in CD-1 mouse at 10 mg/kg. Type of data set: ADME, organism-based. The settings on record: in vivo; for bioavailability: CD-1, mouse.
Data set [4] is described as follows: Volume of distribution at steady state in CD-1 mouse at 3 mg/kg, iv. Type of data set: ADME, organism-based. The conditions noted are these: in vivo; for Vd: CD-1, mouse, read-out: Vdss.
A short description of data set [5]: Half life in CD-1 mouse at 3 mg/kg, iv. The settings on record: in vivo; for half-life: CD-1, mouse. In kind it is ADME, organism-based.
Data set [6] can be described thus: Fraction unbound in 10% CD-1 mouse plasma at 10 uM measured after 20 to 24 hrs by equlibrium dialysis method. In kind it is ADME, cell-free. The settings on record: 10% plasma.
The subject of a further data set is Homo sapiens. In words: Antitumor activity against human TamR1 cells xenografted in nu/nu mouse assessed as tumor regression at 30 mg/kg, po administered daily for 4 weeks. Type of data set: functional, organism-based. (In general: In xenograft studies the graft and the host belong to different species.)
Data set [7] relates to Rattus norvegicus. In words: In vivo antagonist activity at estrogen receptor in CD-IGS rat assessed as reduction in 17alpha-ethynylestradiol-stimulated increase in uterine wet weight at 1 mg/kg, po administered daily 15 mins before 17alpha-ethynylestradiol treatment for 3 days and measured 24 hrs post last dose relative to basal level. In kind it is functional.
The nature of data set [8]: Plasma clearance in CD-1 mouse at 3 mg/kg, iv. Type of data set: ADME, organism-based.
A short description of data set [9]: AUC in CD-1 mouse at 10 mg/kg, po administered at truncated timecourse (1, 4, 24 hrs). In kind it is ADME, organism-based. The conditions noted are these: in vivo.
The nature of data set [10]: Oral bioavailability in CD-1 mouse at 10 mg/kg administered at truncated timecourse (1, 4, 24 hrs). The conditions noted are these: in vivo. In kind it is ADME, organism-based.
A short description of data set [11]: Plasma clearance in CD-1 mouse at 2 mg/kg, iv administered as cassette dose. In kind it is ADME, organism-based.
A short description of data set [12]: Volume of distribution at steady state in CD-1 mouse at 2 mg/kg, iv administered as cassette dose. Type of data set: ADME, organism-based. The settings on record: in vivo, read-out: Vdss.
Data set [13] can be described thus: Half life in CD-1 mouse at 2 mg/kg, iv administered as cassette dose. Type of data set: ADME, organism-based. The conditions noted are these: in vivo.

In turn, `COc1ccc(/C(=C(\c2ccc(/C=C/C(=O)O)cc2)c2ccc3nccn3c2)C2CCC2)c(Cl)c1` registered an EC50 on Estrogen receptor of 0.3 nM. In the data set with MCF7, the IC50 is 0.7 nM. Moreover, the Efficacy in the data set on Rattus norvegicus [1] is listed as 93%. In [2] (mouse), this molecule gave an AUC of 8400 ng·h/mL. Also, the F in [3] (mouse) came out at 69%. The Vdss in data set [4] (mouse) was found to be 0.9 L/kg. For the same molecule, the t1/2 in [5] (mouse) is 1.2 h. Further, in [6], the fraction unbound at 10 µM came out at 0.015. Moreover, the result in the data set on Homo sapiens was inactive.

At Estrogen receptor, `N#Cc1ccc(/C(=C(\c2ccc(/C=C/C(=O)O)cc2)c2ccc(-c3cn[nH]c3)cc2)C2CCC2)c(Cl)c1` yielded an EC50 of 0.7 nM. Besides, the IC50 in the data set with MCF7 came to 2.2 nM. Further, the Efficacy in the data set on Rattus norvegicus [7] amounted to 94%.

`N#Cc1cc(Cl)ccc1/C(=C(\c1ccc(/C=C/C(=O)O)cc1)c1ccc(-c2cn[nH]c2)cc1)C1CCC1` returned an EC50 at Estrogen receptor of 1.1 nM. Moreover, the IC50 with MCF7 is 4.4 nM. Moreover, the Efficacy with Rattus norvegicus [7] came out at 94%.

`COc1ccc(/C(=C(\c2ccc(/C=C/C(=O)O)cc2)c2ccc3scnc3c2)C2CCC2)c(Cl)c1` showed an EC50 on Estrogen receptor of 0.4 nM. Also, the IC50 in the data set with MCF7 amounted to 0.9 nM. Further, the Efficacy in the data set with Rattus norvegicus [1] is recorded as 94%. Further, the AUC in data set [2] (CD-1, mouse, read-out: AUC) turned out to be 75000 ng·h/mL. Moreover, the bioavailability in data set [3] came to 80%. In addition, the clearance in data set [8] was 1.8 mL/min/kg. For the same molecule, the Vd in [4] is 0.3 L/kg. The half-life in data set [5] is 3.2 h. In addition, in [6], the fraction unbound at 10 µM stood at 0.002. The outcome in the data set with Homo sapiens was Active.

On Estrogen receptor, `O=C(O)/C=C/c1ccc(/C(=C(\c2ncc(C(F)(F)F)cc2Cl)C2CCC2)c2ccc3scnc3c2)cc1` yielded an EC50 of 1.1 nM. Moreover, in the data set on MCF7, the IC50 amounted to 2.9 nM. In addition, the Efficacy in the data set with Rattus norvegicus [1] is on record as 92%.

`O=C(O)/C=C/c1ccc(/C(=C(\c2ccc(C(F)(F)F)cc2Cl)C2CCC2)c2ccc3scnc3c2)cc1` showed an EC50 at Estrogen receptor of 1 nM. In addition, the IC50 in the data set on MCF7 was determined as 2.6 nM. Besides, the Efficacy in the data set with Rattus norvegicus [7] stood at 93%.

`O=C(O)/C=C/c1ccc(/C(=C(\c2ccc(F)cc2Cl)C2CCC2)c2ccc3nccn3c2)cc1`: the EC50 on Estrogen receptor is 1.5 nM. Moreover, the IC50 in the data set on MCF7 is 4.4 nM. Also, in the data set with Rattus norvegicus [7], the Efficacy came to 90%.

With `COc1ccc(/C(=C(\c2ccc(/C=C/C(=O)O)cc2)c2ccc(-c3cncs3)cc2)C2CCC2)c(Cl)c1`, the EC50 on Estrogen receptor came to 0.8 nM. Besides, the IC50 in the data set on MCF7 amounted to 1.8 nM. The Efficacy in the data set on Rattus norvegicus [1] came to 93%. Besides, the area under the curve (AUC) at 24 h in [9] stood at 3800 ng·h/mL. The same molecule yielded a fraction unbound at 10 µM in data set [6] of 0.001.

Take `CC/C(=C(/c1ccc(/C=C/C(=O)O)cc1)c1ccc2[nH]ncc2c1)c1ccc(F)cc1Cl` [BRILANESTRANT]: in data set [5], the half-life is 4.6 h. Besides, in [6], the fraction unbound at 10 µM was found to be 0.011.

In turn, `O=C(O)/C=C/c1ccc(/C(=C(\c2ccc(C(F)(F)F)cc2Cl)C2CCC2)c2ccc(N3CCOCC3)cc2)cc1` registered an EC50 on Estrogen receptor of 1.9 nM. The half-maximal inhibitory concentration (IC50) in the data set on MCF7 is 6.9 nM. Further, the Efficacy in the data set with Rattus norvegicus [7] is recorded as 93%.

Take `N#Cc1cc(Cl)ccc1/C(=C(\c1ccc(/C=C/C(=O)O)cc1)c1ccc2scnc2c1)C1CCC1`: the EC50 on Estrogen receptor is 0.4 nM. Further, in the data set on MCF7, the IC50 is 0.9 nM. The Efficacy in the data set on Rattus norvegicus [1] turned out to be 91%.

On Estrogen receptor, `COc1ccc(/C(=C(\c2ccc(/C=C/C(=O)O)cc2)c2ccc(-c3cn[nH]c3)cc2)C2CCC2)c(Cl)c1` registered an EC50 of 1.5 nM. For the same molecule, the IC50 in the data set on MCF7 amounted to 5.1 nM. For the same molecule, the Efficacy with Rattus norvegicus [1] is recorded as 93%. In data set [9], this molecule came in with an AUC at 24 h of 18000 ng·h/mL. The bioavailability in data set [10] was 52%. In data set [11], this molecule displayed a clearance of 4.8 mL/min/kg. In data set [12], the Vd came out at 0.6 L/kg. In [13], this molecule showed a half-life of 3 h. Besides, in [6], the fraction unbound at 10 µM is 0.002.

Take `O=C(O)/C=C/c1ccc(/C(=C(\c2ccc(F)cc2Cl)C2CCC2)c2ccc(N3CCOCC3)cc2)cc1`: the EC50 on Estrogen receptor worked out at 1.6 nM. For the same molecule, in the data set with MCF7, the IC50 was 5 nM. The Efficacy in the data set with Rattus norvegicus [1] is on record as 90%.

Turning to `O=C(O)/C=C/c1ccc(/C(=C(\c2ccc(F)cc2Cl)C2CCC2)c2ccc(-c3cncs3)cc2)cc1`, the EC50 on Estrogen receptor was found to be 0.8 nM. For the same molecule, the IC50 with MCF7 was 4.2 nM. For the same molecule, the Efficacy in the data set on Rattus norvegicus [1] was 91%.

Turning to `O=C(O)/C=C/c1ccc(/C(=C(\c2ccccc2)C2CCC2)c2ccc(-c3cncs3)cc2)cc1`, the EC50 at Estrogen receptor came to 1.7 nM. Further, the IC50 with MCF7 was 9.2 nM. Besides, the Efficacy in the data set with Rattus norvegicus [7] stood at 89%.

With `COc1ccc(/C(=C(\c2ccc(/C=C/C(=O)O)cc2)c2ccc(N3CCOCC3)cc2)C2CCC2)c(Cl)c1`, the EC50 at Estrogen receptor stood at 0.6 nM. Also, the IC50 in the data set with MCF7 is 2.1 nM. In the data set on Rattus norvegicus [1], the Efficacy is given as 92%. The AUC in data set [2] (CD-1, mouse, read-out: AUC) came to 40000 ng·h/mL. For the same molecule, the bioavailability in data set [3] was > 100%. This molecule also had a clearance in data set [8] of 5.1 mL/min/kg. Further, in data set [4], the Vd was found to be 1.5 L/kg. Moreover, the half-life in [5] is 2.9 h. In data set [6], this molecule gave a fraction unbound at 10 µM of 0.004. Moreover, the outcome with Homo sapiens was Active.

Molecule `N#Cc1ccc(/C(=C(\c2ccc(/C=C/C(=O)O)cc2)c2ccc3scnc3c2)C2CCC2)c(Cl)c1` had an EC50 on Estrogen receptor of 0.8 nM. The IC50 in the data set with MCF7 worked out at 1.4 nM. In the data set on Rattus norvegicus [1], the Efficacy worked out at 92%.

As to `N#Cc1cc(Cl)ccc1/C(=C(\c1ccc(/C=C/C(=O)O)cc1)c1ccc(-c2cncs2)cc1)C1CCC1`, the EC50 on Estrogen receptor came out at 1.9 nM. The IC50 with MCF7 was determined as 4.3 nM. In addition, the Efficacy in the data set on Rattus norvegicus [7] is reported as 94%.
